Assay results from patent publication US20220370486A1, “COMBINATION TREATMENT OF SYSTEMIC FUNGAL INFECTIONS” (The Board of Trustees of the University of Illinois, priority 2019, published 2022).
In brackets after ≈: the same amount, converted by molar mass. Read-outs that look alike come from different tables or passages of the source.

What was measured:
[1] = Intravenous toxicity in mice; conditions: up to the highest dose tested
yeast cells = test: Antifungal activity after ergosterol pre-complexation of the sponge; format: cell-based; conditions: sponge pre-complexed with ergosterol
Source text: Anderson, T. M. et al., Nat Chem Biol 2014, 10 (5), 400-6. […] Davis, S. A., et al., Nat Chem Biol 2015, 11 (7), 481-7. To test whether C2′epiAmB primarily kills cells via the same sterol sponge mechanism, the C2′epiAmB sponge was similarly pre-complexed with ergosterol. […] Thus, C2′epiAmB similarly kills yeast primarily via sterol binding, and, by extension, the new compounds targeted in this application are expected to have a similar barrier to fungal resistance that has been observed for the past 50+years with AmB.

[2] = test system: Candida and Aspergillus clinical isolates; test: In vitro antifungal activity against clinical isolates (Evotec); format: cell-based; conditions: many Candida and several Aspergillus strains
Source text: (§1) In vitro antifungal activity of C2′ epiAmB was compared with that of AmB against an extensive series of Candida and Aspergillus clinical isolates (FIG. 6A) at Evotec (Oxfordshire, UK). […] C2′epiAmB was also sent to the US national Fungus Testing Laboratory at UT-San Antonio for antifungal testing against an extended panel of especially challenging 40 Aspergillus clinical isolates, including azole-resistant A. fumigatus, A. flavus, and A. terreus (FIG. 6B).

[3] = test system: 40 Aspergillus clinical isolates, including azole-resistant A. fumigatus, A. flavus, and A. terreus; test: Antifungal testing, Fungus Testing Laboratory UT-San Antonio; format: cell-based
Source text: as §1

human red blood cells = test: Toxicity to human red blood cells; format: cell-based
Source text: (§2) This key discovery opened a path to the rational development of a non-toxic AmB variant. To probe its predicted role in sterol binding, the hydroxyl group was synthetically deleted at the C2′ position on the mycosamine appendage.
In each case, C2′epiAmB is non-toxic to human red blood cells, primary hREC, mice, and rats up to the highest dose tested.

Candida albicans SN250 = test: MIC against Candida albicans SN250; format: cell-based
[4] = Isothermal titration calorimetry (ITC) sterol binding
Source text: as §2
A practical 11-step synthesis of C2′epiAmB using a frontier site-selective acylation method was developed. Wilcock, B. C. et al., Nat Chem 2012, 4 (12), 996-1003; Uno, B. E. A synthesis enabled understanding of Amphotericin B leading to derivatives with improved therapeutic indices. University of Illinois at Urbana-Champaign, 2014. The sterol binding and cell killing activities was then determined.

A. fumigatus AF293 = test: In vitro antifungal activity (Evotec); format: cell-based; conditions: strain AF293
Source text: as §1

A. fumigatus AF91 = test: In vitro antifungal activity (Evotec); format: cell-based; conditions: strain AF91
Source text: as §1

A. fumigatus ATC204305 = test: In vitro antifungal activity (Evotec); format: cell-based; conditions: strain ATC204305
Source text: as §1

A. fumigatus A1163 = test: In vitro antifungal activity (Evotec); format: cell-based; conditions: strain A1163
Source text: as §1

[5] = Intravenous toxicity in rats; conditions: IV, 2, 10, and 17.5 mg/kg
[6] = test system: clinically relevant invasive molds; test: Activity against broader panel of invasive molds; format: cell-based; conditions: many strains, including pan-azole resistant strain F14196
Source text: as §1

F. solani SC 1047542 = test: Checkerboard broth microdilution (CLSI); format: cell-based; conditions: isolate 1047542
Method: (§3) Isolates were tested against varying concentrations of amphotericin B and C2′epiAmB (range, 0.06 to 4 mg/L) and combined with fluconazole (range, 0.12 to 128 mg/L) or ketoconazole (range 0.008 to 8 mg/L) or voriconazole (range, 0.004 to 4 mg/L) using a checkerboard grid design following the Clinical and Laboratory Standards Institute (CLSI) broth microdilution method (M23Ed5).

C. auris 1081160 = test: Checkerboard broth microdilution (CLSI); format: cell-based; conditions: isolate 1081160; for MIC: single agent
Method: as §3

In the case of `C[C@@H]1[C@H](O)[C@@H](C)/C=C/C=C/C=C/C=C/C=C/C=C/C=C/[C@H](OC2O[C@H](C)[C@@H](O)[C@H](N)[C@H]2O)CC2O[C@](O)(C[C@@H](O)C[C@@H](O)[C@H](O)CC[C@@H](O)C[C@@H](O)CC(=O)O[C@H]1C)C[C@H](O)[C@H]2C(=O)O` (stereo partly drawn) [C2′epiAmB, C2′epi amphotericin B], the toxicity in mice [1] is reported as “non-toxic”, the “change of potency upon ergosterol pre-complexation” value (yeast cells) is reported as “same reduction in potency” and the “in vitro antifungal activity” value [2] is reported as “good activity”. For the same compound, the “less potent than AmB, average” value ([3]; average across all 40 strains) was 5.6 fold, the “less potent than AmB” value ([3]; range over 40 Aspergillus clinical isolates) was 2-16 times and the “toxicity to human red blood cells” value (human red blood cells) was “non-toxic”. The MIC (Candida albicans SN250) was 0.5 µM (≈ 0.462 µg/mL), the “binding of ergosterol by ITC” value [4] was “bind ergosterol” and the “binding of cholesterol by ITC” value ([4]; within the detection limits of ITC) was “not (detectably) cholesterol”. The “less potent than AmB” value (A. fumigatus AF293) was 4 fold, the “less potent than AmB” value (A. fumigatus AF91) was > 32 times and the “less potent than AmB” value (A. fumigatus ATC204305) was 4 fold. The “less potent than AmB” value (A. fumigatus A1163) was 4 fold, the mortality [5] was “no mortality” and the antifungal potency [6] was “good antifungal potency”. The MIC (F. solani SC 1047542; Fusarium solani, single agent) was > 4 µg/mL, the “MIC when added 1 log2 unit lower of azoles' MIC” value (from here on “MIC when added 1 log2 unit lower”) (F. solani SC 1047542; with ketoconazole) was 0.06 mg/L and the “MIC when added 1 log2 unit lower” value (F. solani SC 1047542; with voriconazole) was >4 mg/L. The MIC (C. auris 1081160; Candidozyma auris, read-out: MIC) was 2 µg/mL, the MIC (C. auris 1081160) was 4 µg/mL and the “MIC when added 1 log2 unit lower” value (C. auris 1081160; with fluconazole) was 0.06 mg/L. The “MIC when added 1 log2 unit lower” value (C. auris 1081160; with ketoconazole) was 2 mg/L and the “MIC when added 1 log2 unit lower” value (C. auris 1081160; with voriconazole) was 2 mg/L.
